Test results as given in publication PMC5520929, “Bilirubin neurotoxicity is associated with proteasome inhibition” (Cell Death & Disease, 2017).

Molecular target: T1, 20S proteasome chymotrypsin-like (CT-like) peptidase (Homo sapiens, UniProt P28074)
T1 construct: gene PSMB5; purified human 20S proteasomes; with 20S proteasome
T1 sequence (P28074 60-263): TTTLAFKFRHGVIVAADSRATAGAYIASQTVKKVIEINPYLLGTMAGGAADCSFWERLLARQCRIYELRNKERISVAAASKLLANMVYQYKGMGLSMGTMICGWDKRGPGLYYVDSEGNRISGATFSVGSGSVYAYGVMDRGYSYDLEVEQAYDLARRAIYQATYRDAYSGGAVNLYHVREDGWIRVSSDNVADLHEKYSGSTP
Test: fluorogenic Suc-LLVY-AMC peptidase assay on purified human
Assay type: biochemical

C=CC1=C(C)/C(=C/c2[nH]c(Cc3[nH]c(/C=C4\NC(=O)C(C)=C4C=C)c(C)c3CCC(=O)O)c(CCC(=O)O)c2C)NC1=O [Bil, bilirubin]
IC50: ~20 µM
